Drawing on PubChem BioAssay AID1259407 (Chemical Carcinogenesis Research Information System (CCRIS), 2018), this text covers mutagenic call for 8 molecules.

Active and inactive are the calls of the source. The rule behind the calls is not given here.

The series concerns CCRIS mutagenicity, Ames/micronucleus/aberration tests. Briefly: CCRIS mutagenicity studies.
Setting [1] is: Test System: AMES SALMONELLA TYPHIMURIUM, Strain/Indicator: TA98, Metabolic Activation: NONE, Method: PREINCUBATION
The mark [2] stands for this setting: Test System: AMES SALMONELLA TYPHIMURIUM, Strain/Indicator: TA100, Metabolic Activation: NONE, Method: PREINCUBATION
Where [3] appears, read: Test System: AMES SALMONELLA TYPHIMURIUM, Strain/Indicator: TA1535, Metabolic Activation: NONE, Method: PREINCUBATION
Setting [4] is: Test System: AMES SALMONELLA TYPHIMURIUM, Strain/Indicator: TA1537, Metabolic Activation: NONE, Method: PREINCUBATION
The mark [5] stands for this setting: Test System: AMES SALMONELLA TYPHIMURIUM, Strain/Indicator: TA100, Metabolic Activation: RAT, LIVER, S-9, AROCLOR 1254, Method: STANDARD PLATE.
The mark [6] stands for this setting: Test System: AMES SALMONELLA TYPHIMURIUM, Strain/Indicator: TA98, Metabolic Activation: RAT, LIVER, S-9, AROCLOR 1254, Method: STANDARD PLATE.

Consider `Cc1cccc(O)c1C`, for which the mutagenic call was “inactive; negative” under setting [1]; “inactive; negative” (Test System: AMES SALMONELLA TYPHIMURIUM, Strain/Indicator: TA98, Metabolic Activation: RAT LIVER S-9, PHENOBARBITAL AND BETA-NAPHTHOFLAVONE, Method: PREINCUBATION); “inactive; negative” under setting [2]; “inactive; negative” (Test System: AMES SALMONELLA TYPHIMURIUM, Strain/Indicator: TA100, Metabolic Activation: RAT LIVER S-9, PHENOBARBITAL AND BETA-NAPHTHOFLAVONE, Method: PREINCUBATION); “inactive; negative” under setting [3]; “inactive; negative” (Test System: AMES SALMONELLA TYPHIMURIUM, Strain/Indicator: TA1535, Metabolic Activation: RAT LIVER S-9, PHENOBARBITAL AND BETA-NAPHTHOFLAVONE, Method: PREINCUBATION). The mutagenic call reads like this: under setting [4], “inactive; negative”; (Test System: AMES SALMONELLA TYPHIMURIUM, Strain/Indicator: TA1537, Metabolic Activation: RAT LIVER S-9, PHENOBARBITAL AND BETA-NAPHTHOFLAVONE, Method: PREINCUBATION) “inactive; negative”; (Test System: AMES SALMONELLA TYPHIMURIUM, Strain/Indicator: TA1538, Metabolic Activation: NONE, Method: PREINCUBATION) “inactive; negative”; (Test System: AMES SALMONELLA TYPHIMURIUM, Strain/Indicator: TA1538, Metabolic Activation: RAT LIVER S-9, PHENOBARBITAL AND BETA-NAPHTHOFLAVONE, Method: PREINCUBATION) “inactive; negative”; (Test System: E.COLI, Strain/Indicator: WP2UVRA, Metabolic Activation: NONE, Method: PREINCUBATION) “inactive; negative”; (Test System: E.COLI, Strain/Indicator: WP2UVRA, Metabolic Activation: RAT LIVER S-9, PHENOBARBITAL AND BETA-NAPHTHOFLAVONE, Method: PREINCUBATION) “inactive; negative”.

`CN(C)CCC(c1ccccc1)c1ccccn1` (stereo unspecified): the mutagenic call reads like this: (Test System: AMES SALMONELLA TYPHIMURIUM, Strain/Indicator: TA98, Metabolic Activation: HAMSTER, LIVER, S-9, AROCLOR 1254 (10%), Method: PREINCUBATION) “inactive; negative”; under setting [1], “inactive; negative”; (Test System: AMES SALMONELLA TYPHIMURIUM, Strain/Indicator: TA98, Metabolic Activation: RAT, LIVER, S-9, AROCLOR 1254 (10%), Method: PREINCUBATION) “inactive; negative”; (Test System: AMES SALMONELLA TYPHIMURIUM, Strain/Indicator: TA100, Metabolic Activation: HAMSTER, LIVER, S-9, AROCLOR 1254 (10%), Method: PREINCUBATION) “inactive; negative”; under setting [2], “inactive; negative”; (Test System: AMES SALMONELLA TYPHIMURIUM, Strain/Indicator: TA100, Metabolic Activation: RAT, LIVER, S-9, AROCLOR 1254 (10%), Method: PREINCUBATION) “inactive; negative”. Moreover, the mutagenic call reads like this: (Test System: AMES SALMONELLA TYPHIMURIUM, Strain/Indicator: TA1535, Metabolic Activation: HAMSTER, LIVER, S-9, AROCLOR 1254 (10%), Method: PREINCUBATION) “inactive; negative”; under setting [3], “inactive; negative”; (Test System: AMES SALMONELLA TYPHIMURIUM, Strain/Indicator: TA1535, Metabolic Activation: RAT, LIVER, S-9, AROCLOR 1254 (10%), Method: PREINCUBATION) “inactive; negative”; (Test System: AMES SALMONELLA TYPHIMURIUM, Strain/Indicator: TA1537, Metabolic Activation: HAMSTER, LIVER, S-9, AROCLOR 1254 (10%), Method: PREINCUBATION) “inactive; negative”; under setting [4], “inactive; negative”; (Test System: AMES SALMONELLA TYPHIMURIUM, Strain/Indicator: TA1537, Metabolic Activation: RAT, LIVER, S-9, AROCLOR 1254 (10%), Method: PREINCUBATION) “inactive; negative”.

As to `c1cc2ccc3cc4cccc5ccc6cc(c1)c2c3c6c54`, the mutagenic call under setting [5] was “active; positive”.

In the case of `Cc1c(N)nc([C@H](CC(N)=O)NC[C@H](N)C(N)=O)nc1C(=O)N[C@H](C(=O)N[C@H](C)[C@@H](O)[C@H](C)C(=O)N[C@H](C(=O)NCCc1nc(-c2nc(C(=O)NCCCNCCCN=C(N)CC3CCC(Cl)CC3)cs2)cs1)[C@@H](C)O)[C@@H](O[C@@H]1O[C@@H](CO)[C@@H](O)[C@H](O)[C@@H]1O[C@H]1O[C@H](CO)[C@@H](O)[C@H](OC(N)=O)[C@@H]1O)c1cnc[nH]1` (stereo partly specified), the mutagenic call (Test System: AMES SALMONELLA TYPHIMURIUM, Strain/Indicator: TA94, Metabolic Activation: NONE, Method: PREINCUBATION) was “active; positive” and the mutagenic call (Test System: AMES SALMONELLA TYPHIMURIUM, Strain/Indicator: TA102, Metabolic Activation: NONE, Method: PREINCUBATION) is “active; positive”.

`CC1(C)[C@H](C(=O)O[C@H](C#N)c2cccc(Oc3ccccc3)c2)[C@@H]1C(Br)C(Br)(Br)Br` (stereo partly specified): the mutagenic call is “inactive; negative” (End Point: In vivo chromosomal aberrations, Test System: Bone marrow cells, Species: Rat, Strain/Sex: Sprague Dawley CD, Route: Gavage); “inactive; negative (precipitation above 100 ug/plate)” (Test System: Ames Salmonella typhimurium, Strain/Indicator: TA98, Metabolic Activation: None); “inactive; negative (precipitation above 100 ug/plate)” (Test System: Ames Salmonella typhimurium, Strain/Indicator: TA98, Metabolic Activation: Rat, Liver, S-9, Aroclor 1254); “inactive; negative (precipitation above 100 ug/plate)” (Test System: Ames Salmonella typhimurium, Strain/Indicator: TA100, Metabolic Activation: None); “inactive; negative (precipitation above 100 ug/plate)” (Test System: Ames Salmonella typhimurium, Strain/Indicator: TA100, Metabolic Activation: Rat, Liver, S-9, Aroclor 1254); “inactive; negative (precipitation above 100 ug/plate)” (Test System: Ames Salmonella typhimurium, Strain/Indicator: TA1535, Metabolic Activation: None). Further, the mutagenic call (Test System: Ames Salmonella typhimurium, Strain/Indicator: TA1535, Metabolic Activation: Rat, Liver, S-9, Aroclor 1254) is “inactive; negative (precipitation above 100 ug/plate)”; the mutagenic call (Test System: Ames Salmonella typhimurium, Strain/Indicator: TA1537, Metabolic Activation: None) was “inactive; negative (precipitation above 100 ug/plate)”; the mutagenic call (Test System: Ames Salmonella typhimurium, Strain/Indicator: TA1537, Metabolic Activation: Rat, Liver, S-9, Aroclor 1254) is “inactive; negative (precipitation above 100 ug/plate)”; the mutagenic call (Test System: Ames Salmonella typhimurium, Strain/Indicator: TA1538, Metabolic Activation: None) was “inactive; negative (precipitation above 100 ug/plate)”; the mutagenic call (Test System: Ames Salmonella typhimurium, Strain/Indicator: TA1538, Metabolic Activation: Rat, Liver, S-9, Aroclor 1254) is “inactive; negative (precipitation above 100 ug/plate)”.

In the case of `COP(=O)(SC)SC`, the mutagenic call was “inactive; negative” (Test System: AMES SALMONELLA TYPHIMURIUM, Strain/Indicator: TA97, Metabolic Activation: NONE, Method: STANDARD PLATE); “inactive; negative” (Test System: AMES SALMONELLA TYPHIMURIUM, Strain/Indicator: TA97, Metabolic Activation: RAT, LIVER, S-9, AROCLOR 1254, Method: PREINCUBATION); “inactive; negative” (Test System: AMES SALMONELLA TYPHIMURIUM, Strain/Indicator: TA97, Metabolic Activation: RAT, LIVER, S-9, AROCLOR 1254, Method: STANDARD PLATE); “inactive; negative” (Test System: AMES SALMONELLA TYPHIMURIUM, Strain/Indicator: TA98, Metabolic Activation: NONE, Method: STANDARD PLATE); “inactive; negative” (Test System: AMES SALMONELLA TYPHIMURIUM, Strain/Indicator: TA98, Metabolic Activation: RAT, LIVER, S-9, AROCLOR 1254, Method: PREINCUBATION); “inactive; negative” under setting [6]. Further, the mutagenic call is “inactive; negative” (Test System: AMES SALMONELLA TYPHIMURIUM, Strain/Indicator: TA100, Metabolic Activation: NONE, Method: STANDARD PLATE); “inactive; negative” (Test System: AMES SALMONELLA TYPHIMURIUM, Strain/Indicator: TA100, Metabolic Activation: RAT, LIVER, S-9, AROCLOR 1254, Method: PREINCUBATION); “inactive; negative” under setting [5].

Consider `CC1(c2ccccc2)CO1` (stereo unspecified), for which, under setting [2], the mutagenic call is “active; positive”.

Regarding `CC(=O)Nc1ccc2c(c1)Cc1cccc(O)c1-2`, the mutagenic call by setting is: under setting [6], “active; positive”; under setting [5], “active; positive”; (Test System: AMES SALMONELLA TYPHIMURIUM, Strain/Indicator: TA1538, Metabolic Activation: RAT, LIVER, S-9, AROCLOR 1254, Method: STANDARD PLATE) “active; positive”.
